Molecules are shown by their SMILES. Some results are limits rather than exact numbers.

The target in one series is T1, β1 - adrenergic receptor (Rattus norvegicus, UniProt P18090).
T1 construct: 10 cortices removed from the brains of rats; from tissue; host or cells: rat brain cortex, membrane preparation
The experiment in a line: β1 - adrenergic receptor affinity (3H dihydroalprenolol displacement, rat cortices). The settings on record: ARL=100 CD/CX relative to propranolol; 3H dihydroalprenolol 10^-9 M, 37° C., 10 minutes. The series is classed as binding. As to the method: 10 cortices removed from the brains of rats weighing on the average 150 g were homogenized in 90 ml of 0.32 M sucrose and after centrifuging the homogenized mixture at 1,000 g for 20 minutes at 0° C., the supernatant was centrifugated at 30,000 g for 15 minutes at 0° C. to +4° C. The residue was suspended in 120 ml of Tris HCl 50 mM buffer pH 7.7 and centrifuged at 30,000 g for 15 minutes at 0° C. to +4° C. The new residue obtained was suspended in 480 ml of Krebs Tris HCl 50 mM buffer, 7.7 pH. Then, 2 ml of the suspension were incubated for 10 minutes at 37° C. in the presence of ^3 H dihydroalprenolol at a concentration of 10^-9 M:
(§1) (ii) with increasing concentrations of the product under test, or
(iii) to determine the non-specific fixation, with non-radioactive propranolol at a concentration of 10^-5 M.
The incubated suspensions were filtered on Whatman GF/C and the filters were washed three times with 5 ml of Krebs Tris HCl buffer pH 7.7 at 0° C. The radio-activity of the filters was measured by liquid scintillation. The affinity of the product for the adrenergic receptors was given relative to propranolol as reference product,
CD=concentration of propranolol inhibiting 50% of the specific fixation of the ^3 H dihydroalprenolol: CX=concentration of the product under test inhibiting 50% of the specific fixation of the ^3 H dihydroalprenolol.

The target in the next series is T2, β2 - adrenergic receptor (Rattus norvegicus, UniProt P10608).
T2 construct: The cerebelli removed from the brains of male rats; from tissue; host or cells: rat cerebellum, membrane preparation
Briefly: β2 - adrenergic receptor affinity (3H dihydroalprenolol displacement, rat cerebelli). The series is classed as binding. The note with it: ARL=100 CD/CX relative to propranolol; 3H dihydroalprenolol 10^-9 M, 37° C., 10 minutes. As to the method:
The cerebelli removed from the brains of male rats weighing on the average 150 g were homogenized in 90 ml of 0.32 M sucrose and after centrifuging the homogenized mixture at 1,000 g for 20 minutes at 0° C., the supernatant was centrifuged at 30,000 g for 15 minutes at 0° C. to +4° C. The residue was suspended in 120 ml of Tris HCl 50 mM buffer pH 7.7, and centrifuged at 30,000 g for 15 minutes at 0° to +4° C. The new residue obtained was suspended in 480 ml of Krebs Tris HCl buffer, pH 7.7. 2 ml of the suspension were then incubated at 37° C. for 10 minutes in the presence of 3H dihydroalprenolol at a concentration of 10^-9 M:
(ii) with increasing concentrations of the product under test
(iii) to determine the non-specific fixation, with non-radio-active propranolol at a concentration of 10^-5 M. The incubated suspensions were filtered on Whatman GF/C and the filters were washed three times with 5 ml of Krebs Tris HCl buffer pH 7.7 at 0° C.
The radio-activity of the filters was measured by liquid scintillation. The affinity of the test product for β2 - adrenergic receptors was given relative to propranolol as reference product.
CD=concentration of propranolol inhibiting 50% of the specific fixation of ^3 H dihydroalprenolol:
CX=concentration of the product under test inhibiting 50% of the specific fixation of the ^3 H dihydroalprenolol.

For the next series, the system named is mice. Briefly: Acute toxicity after oral administration to mice. The series is classed as in vivo. The procedure:
The lethal doses LD0 for the different test compounds were evaluated after oral administration to mice and the maximum dose not causing any mortality in 8 days was called LD0.

The next series concerns α2 - adrenergic receptor. The experiment in a line: α2 - adrenergic receptor affinity (3H rauwolscine displacement, rat cortices). The series is classed as binding. The settings on record: ARL=100 CD/CX relative to phentolamine, 25° C., 45 minutes. As to the method:
10 cortices removed from the brains of male rats weighing on the average […] were homogenized in 90 ml of 0.32 M sucrose and after centrifuging the homogenized mixture at 1,000 g for 10 minutes at 0° C., the supernatant was centrifuged at 30,000 g for 10 minutes at 0° C. to +4° C. The residue was suspended in 240 ml of Tris HCl 50 mM buffer, pH 7.7 and centrifuged at 30,000 g for 15 minutes at 0° to +4° C. The new residue obtained was suspended in 480 ml of NaKPO4 50 mM buffer, pH 7.4. Then, 2 ml of suspension were incubated for 45 minutes at 25° C. in the presence of ^3 H rauwolscine at a concentration of […]:
as §1
(iii) to determine the non-specific fixation, with non-radioactive phentolamine at a concentration of 10^-5 M.
The incubated suspensions were filtered on Whatman GF/C and the filters were washed three times with 5 ml of NaKPO4 buffer, pH 7.4, at 0° C. The radio-activity of the filters was measured by liquid scintillation. The affinity of the product under test for the α2 - adrenergic receptors were given relative to phentolamine as reference product. CD=concentration of phentolamine inhibiting 50% of the specific fixation of ^3 H rauwolscine:
CX=concentration of the product under test inhibiting 50% of the specific fixation of ^3 H rauwolscine.

Another series relates to Rat caudal arteries. The experiment in a line: Anti-calcic activity in vitro: inhibition of K+-depolarized, Ca2+-induced contraction of rat caudal arteries. The settings on record: rat caudal artery, depolarized with 100 mM K+, Ca2+ 0.1 to 3.0 mM, 37° C. The procedure: Rat caudal arteries were cut into a spiral and were attached to tension sensors and were kept in tanks of […] of Krebs buffer-sodium bicarbonate (NaCl: 120.8 mM, KCl: 5.9 mM, MgCl2 : 1.2 mM, NaH2 PO4 : 1.2 mM, NaHCO3 : 15.5 mM, glucose: 12.6 mM) at 37° C. gassed with a mixture of O2 : 95% - CO2 : 5%. The preparations were depolarized with a buffer solution with a concentration of 100 mM in K^+ ions (NaCl: 26.7 mM, KCl: 100 mM, MgCl2 : 1.2 mM, NaH2 PO4 : 1.2 mM, NaHCO3 : 15.5 mM, glucose: 12.6 mM). Calcium chloride was added in a volume of 250 μ1 to obtain a range of increasing concentrations of Ca^2+ ions from 0.1 to 3.0 mM. The contractions of the arteries were recorded and a control range was established in this way. The operation was repeated every 15 minutes with the Ca^2+ range of ions and the preparation was washed four times after each range.
When a stable response had been obtained, the operation with the range of Ca^2+ ions was carried out in the presence of different concentrations of the product under test until a stable response was obtained. The contractions of the arteries depend on the entry of the Ca^2+ ions into the cells of the smooth muscles and are caused by the depolarization of the smooth muscle by the K^+ ions and by the action of the noradrenaline liberated at the presynaptic level. By repeating the operation with the arteries denervated by the action of 6-OH dopamine, the specific action due to the noradrenaline was suppressed.

Series [1] concerns disorders of the cardiac rhythm (aconitine) in rats. Briefly: Anti-arrhythmic activity in rats (aconitine-induced disorders of the cardiac rhythm). Type of series: in vivo, rat. The note with it: intravenous, aconitine 10 μg/min five minutes after product, in comparison with controls. As to the method:
Male rats weighing 300-350 g anesthetized by intraperitoneal route with 1.20 g/Kg of urethane were tracheotomized and submitted to artifical respiration (40-50 insufflations of 3 ml/minute). Needles were implanted sub-cutaneously to record the electro-cardiogram of the rats on the signal in derivation DII. The products under test were administered by intravenous route.
Five minutes after the product was administered, the jugular vein of the rats was perfused with 10 μg/min. of an aconitine solution and the time of appearance of disorders of the cardiac rhythm was noted. The results were expressed in percentage of the extension of the time of appearance of disorders of the cardiac rhythm in comparison with controls and as a function of the dose of the product under test.

Series [2] has as its system arterial pressure of male rats of Wistar strain. Briefly: Hypotensive activity (carotid arterial pressure in anesthetized rats). The series is classed as in vivo, rat (Wistar). The settings on record: 1 mg/Kg, intravenous, vs initial control arterial pressure. As to the method:
The hypotensive activity was studied on male rats of Wistar strain weighing about 300 g and anesthetized with 50 mg/Kg by intravenous route of sodium pentobarbital. The product tested was administered by intravenous route in the jugular vein and the pressure in the carotid artery was measured before and after administration of the product tested. The following table reports the variations expressed in percentage of the arterial pressure after administration of the product tested by comparison with the initial control arterial pressure.

T1 sequence (P18090 whole entry): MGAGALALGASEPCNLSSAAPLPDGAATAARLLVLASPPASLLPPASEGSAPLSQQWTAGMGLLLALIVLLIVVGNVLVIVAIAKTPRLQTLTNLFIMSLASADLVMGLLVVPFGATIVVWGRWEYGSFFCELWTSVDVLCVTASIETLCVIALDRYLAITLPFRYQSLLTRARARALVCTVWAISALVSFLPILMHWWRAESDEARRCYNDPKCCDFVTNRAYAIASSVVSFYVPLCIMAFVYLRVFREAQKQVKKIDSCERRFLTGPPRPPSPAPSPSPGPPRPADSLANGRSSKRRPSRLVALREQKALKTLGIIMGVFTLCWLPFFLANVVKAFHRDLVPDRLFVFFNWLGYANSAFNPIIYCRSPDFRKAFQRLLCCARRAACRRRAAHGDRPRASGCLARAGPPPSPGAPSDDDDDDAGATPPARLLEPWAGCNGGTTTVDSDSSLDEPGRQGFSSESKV
T2 sequence (P10608 whole entry): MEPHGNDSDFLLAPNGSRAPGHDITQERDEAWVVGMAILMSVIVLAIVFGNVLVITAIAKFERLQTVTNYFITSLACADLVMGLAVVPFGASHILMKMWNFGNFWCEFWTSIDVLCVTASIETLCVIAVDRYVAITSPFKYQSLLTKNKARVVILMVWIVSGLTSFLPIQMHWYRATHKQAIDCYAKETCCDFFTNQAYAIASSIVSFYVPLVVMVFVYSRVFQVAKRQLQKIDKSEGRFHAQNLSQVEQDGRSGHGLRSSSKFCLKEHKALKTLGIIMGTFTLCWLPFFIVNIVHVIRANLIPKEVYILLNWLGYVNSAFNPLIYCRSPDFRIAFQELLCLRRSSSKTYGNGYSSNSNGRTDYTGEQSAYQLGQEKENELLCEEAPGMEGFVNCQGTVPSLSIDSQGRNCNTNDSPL

As usually defined, the IC50 is the concentration that gives 50% inhibition. Turning to `CC(C)(C)NCC(O)COc1ccc(/C=C/c2cccc3[nH]ccc23)cc1` (stereo not drawn) [Example 3, 1-[(1,1-dimethylethyl)-amino]-3-[4-[2-(1H-indol-4-yl)-ethenyl]-phenoxy]-2-propanol], the “ARL (relative affinity)” value at β1 - adrenergic receptor came to 0.8%; on β2 - adrenergic receptor, 0.1%; in the series on α2 - adrenergic receptor, 0.7%. Also, the “LD0 (maximum dose not causing any mortality in 8 days)” value in the series with mice is above 100 mg/kg. Further, the IC50 in the series on Rat caudal arteries came to 600 nM.
With `CC(C)(C)NCC(O)COc1ccccc1/C=C/c1cccc2[nH]ccc12` (stereo not drawn) [Example 2, 1-[(1,1-dimethylethyl)-amino]-3-[2-[2-(1H-indol-4-yl)-ethenyl]-phenoxy]-2-propanol], the “Percentage of extension of time of appearance of disorders of the cardiac rhythm” value (shortened to “Percentage”) in series [1] (5 mg/Kg) is reported as 30%; in series [1] (10 mg/Kg), 110%. In addition, the entries for the “ARL (relative affinity)” value on β1 - adrenergic receptor and at β2 - adrenergic receptor were 198% and 172%, respectively. The “% Variation of the arterial pressure” value in series [2] (1 min. after administration) is -17%; in series [2] (5 min. after administration), -10%; in series [2] (10 min. after administration), -10%; in series [2] (30 min. after administration), -14%. In the series with mice, the “LD0 (maximum dose not causing any mortality in 8 days)” value was above 100 mg/kg. The IC50 in the series on Rat caudal arteries stood at 1200 nM.
With `CC(C)(C)NCC(O)COc1ccccc1CCc1cccc2[nH]ccc12` (stereo not drawn) [Example 8, 1-[(1,1-dimethylethyl)-amino]-3-[2-[2-(1H-indol-4-yl)-ethyl]-phenoxy]-2-propanol], the “Percentage” value in series [1] (5 mg/Kg) is on record as 162%. Besides, the “LD0 (maximum dose not causing any mortality in 8 days)” value with mice was above 400 mg/kg. Moreover, the half-maximal inhibitory concentration (IC50) in the series on Rat caudal arteries amounted to 1500 nM.
As to `CC(C)(C)NCC(O)COc1ccc(/C=C/c2cccc3c2CC(=O)N3)cc1` (stereo not drawn) [Example 5, 1,3-dihydro-4-[2-[4-[3-[(1,1-dimethylethyl)-amino]-2-hydroxypropoxy]-phenyl]-ethenyl]-2H-indol-2-one], the “LD0 (maximum dose not causing any mortality in 8 days)” value in the series on mice is above 100 mg/kg. The IC50 in the series on Rat caudal arteries amounted to 2500 nM.
Turning to `CC(C)NCC(O)COc1ccc(/C=C/c2cccc3[nH]ccc23)cc1` (stereo not drawn) [Example 4], the “ARL (relative affinity)” value on β1 - adrenergic receptor turned out to be 1.0%; on β2 - adrenergic receptor, 0.03%; with α2 - adrenergic receptor it was 0.0%. Besides, the “LD0 (maximum dose not causing any mortality in 8 days)” value in the series with mice came out at 60 mg/kg. Also, the IC50 in the series on Rat caudal arteries is 3500 nM.
In the case of `CC(C)NCC(O)COc1ccccc1/C=C/c1cccc2[nH]ccc12` (stereo not drawn) [Example 1, 1-[2-[2-(1H-indol-4-yl)-ethenyl]-phenoxy]-3-[isopropyl-amino]-2-propanol], the “ARL (relative affinity)” value at β1 - adrenergic receptor amounted to 92.5%; at β2 - adrenergic receptor, 18%; with α2 - adrenergic receptor, 0.1%. Besides, the “% Variation of the arterial pressure” value in series [2] (1 min. after administration) was -11%; in series [2] (5 min. after administration), -11%; in series [2] (10 min. after administration) it was -12%; in series [2] (30 min. after administration), -13%. For the same molecule, the “LD0 (maximum dose not causing any mortality in 8 days)” value in the series with mice is above 100 mg/kg. Moreover, in the series with Rat caudal arteries, the IC50 was 4000 nM.
Regarding `CC(C)(C)NCCOc1ccccc1/C=C/c1cccc2[nH]ccc12` [Example 11, N-(1,1-dimethylethyl)-2-[2-[2-(1H-indol-4-yl)-ethenyl]-phenoxy]-ethanamine (trans E)], in series [1] (5 mg/Kg), the “Percentage” value is recorded as 41%. Moreover, in the series with mice, the “LD0 (maximum dose not causing any mortality in 8 days)” value was 200 mg/kg.
For `CC(C)(C)NCCCOc1ccccc1CCc1cccc2[nH]ccc12` [Example 12, N-(1,1-dimethylethyl)-3-[2-[2-(1H-indol-4-yl)-ethyl]-phenoxy]-propanamine], the IC50 in the series with Rat caudal arteries worked out at 300 nM.
For the molecule `CC(C)(C)NCC(O)COc1ccccc1/C=C/c1cccc2c1CC(=O)N2` (stereo not drawn) [Example 9, 1,3-dihydro-4-[2-[2-[3-[(1,1-dimethylethyl)-amino]-2-hydroxypropoxy]-phenyl]-ethenyl]-2H-indol-2-one], the “Percentage” value in series [1] (5 mg/Kg) turned out to be 167%. Besides, the IC50 in the series with Rat caudal arteries stood at 1400 nM.
`CC(C)(C)NCCCOc1ccccc1/C=C/c1cccc2[nH]ccc12` [Example 6, N-(1,1-dimethylethyl)-3-[2-[2-(1H-indol-4-yl)-ethenyl]-phenoxy]-propanamine]: the “Percentage” value in series [1] (5 mg/Kg) amounted to 49%. Moreover, the “LD0 (maximum dose not causing any mortality in 8 days)” value in the series with mice is above 400 mg/kg. The IC50 in the series on Rat caudal arteries was 2000 nM.
